From ChEMBL document CHEMBL1201862, “PubChem BioAssay data set” (2004)
Several values for one entry are separate records, joined by “and”; a condition that tells them apart may be missing. Identical values can stand only once. Activity calls are given as the source filed them.

Assays:
[1] = target: Nonstructural protein 1 (Influenza A virus, UniProt Q194T2); format: functional, Influenza A virus (A/California/07/2009(H1N1))
[2] = HGIII-sPLA2 enzyme inhibition potency – biochemical, QFRET, IC50, dose response (AID 743457);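 further: green fluorescence rise as the enzyme cleaves BODIPY PC-A2 in liposomes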
[3] = target: T1, DNA repair protein RAD52 homolog (Homo sapiens, UniProt P43351); format: functional, biochemical
T1 sequence (P43351 whole entry): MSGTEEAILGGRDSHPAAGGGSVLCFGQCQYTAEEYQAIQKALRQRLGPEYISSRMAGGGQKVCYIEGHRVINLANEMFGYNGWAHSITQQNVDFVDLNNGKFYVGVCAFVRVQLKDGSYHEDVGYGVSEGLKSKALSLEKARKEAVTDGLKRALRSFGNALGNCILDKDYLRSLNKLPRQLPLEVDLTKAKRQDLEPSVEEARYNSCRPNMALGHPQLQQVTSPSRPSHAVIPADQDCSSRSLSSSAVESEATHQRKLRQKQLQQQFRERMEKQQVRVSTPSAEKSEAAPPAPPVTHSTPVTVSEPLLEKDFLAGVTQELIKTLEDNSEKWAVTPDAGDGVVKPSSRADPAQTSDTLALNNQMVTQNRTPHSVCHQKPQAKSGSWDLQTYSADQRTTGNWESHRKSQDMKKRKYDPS

[4] = target: Dual specificity tyrosine-phosphorylation-regulated kinase 1A (Rattus norvegicus, UniProt Q63470); format: biochemical, Homo sapiens
[5] = Cytotoxicity screening for potential Inhibitors of Bacterial Capsule Biogenesis. [Related pubchem assays (depositor defined):AID488970]; format: functional
[6] = viability loss in HeLa cells – cytotoxicity control for MgcRacGAP inhibitor project, dose response (AID 624300); format: functional
[7] = target: T2, Histone-lysine N-methyltransferase NSD2 (Homo sapiens, UniProt O96028); format: biochemical
T2 sequence (O96028 whole entry): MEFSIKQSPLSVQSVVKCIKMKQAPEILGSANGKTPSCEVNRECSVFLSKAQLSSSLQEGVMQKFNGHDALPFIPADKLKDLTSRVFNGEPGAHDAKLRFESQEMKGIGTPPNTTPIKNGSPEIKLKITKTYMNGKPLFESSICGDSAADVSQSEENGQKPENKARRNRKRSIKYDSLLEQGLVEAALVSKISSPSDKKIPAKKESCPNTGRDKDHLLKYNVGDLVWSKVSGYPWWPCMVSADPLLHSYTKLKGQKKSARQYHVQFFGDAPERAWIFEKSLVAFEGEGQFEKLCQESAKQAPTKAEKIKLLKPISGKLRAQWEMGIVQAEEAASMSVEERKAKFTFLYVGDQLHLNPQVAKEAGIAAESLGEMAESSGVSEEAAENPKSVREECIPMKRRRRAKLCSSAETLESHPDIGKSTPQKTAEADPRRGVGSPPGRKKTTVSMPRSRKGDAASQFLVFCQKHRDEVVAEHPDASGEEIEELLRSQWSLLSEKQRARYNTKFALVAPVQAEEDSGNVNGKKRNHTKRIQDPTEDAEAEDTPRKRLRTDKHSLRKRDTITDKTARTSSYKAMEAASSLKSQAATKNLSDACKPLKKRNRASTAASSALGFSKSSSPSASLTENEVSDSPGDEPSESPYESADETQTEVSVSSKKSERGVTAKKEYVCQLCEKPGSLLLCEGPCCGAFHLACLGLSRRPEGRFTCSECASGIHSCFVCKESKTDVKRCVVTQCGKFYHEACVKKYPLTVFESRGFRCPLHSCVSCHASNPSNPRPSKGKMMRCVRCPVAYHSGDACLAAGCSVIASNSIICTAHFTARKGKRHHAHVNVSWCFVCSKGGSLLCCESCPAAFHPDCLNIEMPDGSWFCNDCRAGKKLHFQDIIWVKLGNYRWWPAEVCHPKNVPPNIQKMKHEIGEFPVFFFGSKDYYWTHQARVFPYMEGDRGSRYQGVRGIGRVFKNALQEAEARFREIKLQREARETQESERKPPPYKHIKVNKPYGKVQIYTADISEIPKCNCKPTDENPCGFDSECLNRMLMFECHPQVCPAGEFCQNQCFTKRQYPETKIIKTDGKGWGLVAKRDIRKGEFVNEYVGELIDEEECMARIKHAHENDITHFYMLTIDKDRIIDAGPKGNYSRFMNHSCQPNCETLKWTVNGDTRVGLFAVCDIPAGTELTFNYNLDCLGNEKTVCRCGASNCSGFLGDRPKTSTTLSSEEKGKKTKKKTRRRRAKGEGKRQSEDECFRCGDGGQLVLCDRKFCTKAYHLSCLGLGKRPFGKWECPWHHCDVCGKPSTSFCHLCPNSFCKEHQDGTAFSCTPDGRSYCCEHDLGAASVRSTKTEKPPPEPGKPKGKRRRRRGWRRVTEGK

[8] = target: T3, Rac GTPase-activating protein 1 (Homo sapiens, UniProt Q9H0H5); assay: blockers of MgcRacGAP-driven Rac1 GTP hydrolysis – biochemical, ADP Hunter fluorescence, primary and confirmatory, confirmation (AID 624330); format: functional
T3 sequence (Q9H0H5 whole entry): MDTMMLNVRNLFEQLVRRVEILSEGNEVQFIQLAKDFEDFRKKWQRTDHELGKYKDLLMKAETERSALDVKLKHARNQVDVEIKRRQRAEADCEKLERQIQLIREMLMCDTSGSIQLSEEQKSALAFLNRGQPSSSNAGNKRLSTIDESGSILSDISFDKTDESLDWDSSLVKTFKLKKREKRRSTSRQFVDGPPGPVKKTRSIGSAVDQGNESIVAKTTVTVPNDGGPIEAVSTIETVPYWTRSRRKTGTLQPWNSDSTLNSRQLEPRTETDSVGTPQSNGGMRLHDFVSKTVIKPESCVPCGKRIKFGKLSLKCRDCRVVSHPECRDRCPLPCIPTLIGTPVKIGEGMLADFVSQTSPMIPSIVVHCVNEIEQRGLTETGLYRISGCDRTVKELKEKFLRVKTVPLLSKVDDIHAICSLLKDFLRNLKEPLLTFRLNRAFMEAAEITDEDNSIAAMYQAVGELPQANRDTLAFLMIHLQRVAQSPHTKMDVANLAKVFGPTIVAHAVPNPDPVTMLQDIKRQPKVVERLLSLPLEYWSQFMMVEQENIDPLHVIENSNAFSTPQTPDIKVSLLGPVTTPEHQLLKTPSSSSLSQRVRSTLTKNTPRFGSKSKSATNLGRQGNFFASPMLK

[9] = off-target signal loss in HeLa-CEM21 co-culture – HeLa F-luc CTL cells, cherry-picked, counter-screen for HIV-1 Env fusion inhibitor project, dose response (AID 652040); format: functional, cell-based;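 further: potency for signal decrease marking cytotoxic or nonspecific inhibition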
[10] = target: Cyclin-dependent kinase 5/CDK5 activator 1 (Homo sapiens, UniProt Q00535); assay: blockade of human CDK5 activity – biochemical, cherry-picked samples, set 2, dose response (AID 504545)
[11] = target: Paired box protein Pax-8 (Homo sapiens, UniProt Q06710); assay: PAX8 transcriptional activity inhibition in RMG-I – RMG-I cells, luciferase, cherry-pick, dose response (AID 687027); format: functional, cell-based;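 further: luciferase reporter driven by Pax8 target thyroperoxidase promoter measured by SteadyGlo luminescence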
[12] = blockers of HIV-1 envelope-mediated cell-cell fusion – cherry-pick, dose response (AID 652057); format: functional, cell-based
[13] = blockers of HIV-1 ZM109 envelope-driven cell-cell fusion – HeLa effector, CEM target cells, luciferase, cherry-pick, dose response (AID 652058); format: functional, cell-based;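 further: luciferase signal from HIV-1 Env mediated cell-cell fusion of effector and target cells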
[14] = viability loss in CEM21 cells – cell-based, CellTiter-Glo luminescence, cherry-picked, cytotoxicity control for viral fusion inhibitor project, dose response (AID 652042); format: functional;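 further: potency for signal decrease meaning cytotoxicity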
[15] = HIV-1 AD8 envelope cell-cell fusion blockers – cherry-pick, dose response (AID 652062); format: functional, cell-based;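 further: luciferase signal from cell-cell fusion driven by HIV-1 clade B AD8 Env; potency is for inhibitors of fusion seen as a drop in luminescence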
[16] = target: Protein-tyrosine kinase 2-beta (Homo sapiens, UniProt Q14289);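 further: potency of inhibitors of PYK2 kinase phosphorylation of poly-GT substrate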
[17] = target: Genome polyprotein (Hepatitis C virus, UniProt Q2Q167); assay: disruption of hepatitis C core self-association – biochemical, TR-FRET, dose response (AID 2159); parameters: species or system Hepacivirus hominis;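 further: blocks dimerization of HCV core protein measured by TR-FRET between tagged core106 pairs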
[18] = target: Eukaryotic translation initiation factor 4E (Mus musculus, UniProt P63073); assay: blockers of eIF4G binding by eIF4E – biochemical, TR-FRET, dose response (AID 855); format: functional;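 further: potency for disrupting eIF4E binding to eIF4GI seen as loss of FRET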
[19] = DNA intercalator displacement (FID) – biochemical, fluorescence, counter-screen for HCV NS3 helicase inhibitor project, dose response (AID 2172)
[20] = target: NS3 (Hepatitis C virus, UniProt A3EZJ3); assay: PubChem AID 2173; parameters: species or system Hepacivirus hominis
[21] = target: T4, Tyrosine-protein phosphatase non-receptor type 7 (Homo sapiens, UniProt P35236); assay: redox-active compounds inhibiting HePTP phosphatase – biochemical, fluorescence, mechanism study (AID 2068); format: functional
T4 sequence (P35236 whole entry): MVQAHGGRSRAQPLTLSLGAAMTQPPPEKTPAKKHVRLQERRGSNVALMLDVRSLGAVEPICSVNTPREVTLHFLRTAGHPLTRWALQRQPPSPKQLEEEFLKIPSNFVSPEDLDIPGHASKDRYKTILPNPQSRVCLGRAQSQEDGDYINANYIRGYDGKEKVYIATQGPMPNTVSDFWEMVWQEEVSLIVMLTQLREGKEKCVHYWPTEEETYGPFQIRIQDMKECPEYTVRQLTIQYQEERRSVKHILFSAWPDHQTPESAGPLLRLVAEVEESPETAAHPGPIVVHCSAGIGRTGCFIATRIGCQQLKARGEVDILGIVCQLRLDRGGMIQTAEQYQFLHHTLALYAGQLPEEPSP

[22] = target: Bcl-2-like protein 10 (Homo sapiens, UniProt Q9HD36); assay: Bcl-B/TR3 peptide binding disruption – biochemical, fluorescence polarization, FITC-TR3 peptide, selectivity assay for Bfl-1 inhibitor project, primary screen (AID 748);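 further: fluorescence polarization from a fluorescein-labelled TR3 peptide binding purified Bcl-B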
[23] = target: T5, Streptokinase A (Streptococcus pyogenes serotype M1, UniProt P10520); assay: viability-normalized secreted streptokinase activity reduction – plasminogen activation absorbance, OD405, dose response (AID 1914); format: functional, Streptococcus pyogenes M1 GAS;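 further: secreted streptokinase activity via plasminogen activation per viability signal from cell pellet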
T5 sequence (P10520 whole entry): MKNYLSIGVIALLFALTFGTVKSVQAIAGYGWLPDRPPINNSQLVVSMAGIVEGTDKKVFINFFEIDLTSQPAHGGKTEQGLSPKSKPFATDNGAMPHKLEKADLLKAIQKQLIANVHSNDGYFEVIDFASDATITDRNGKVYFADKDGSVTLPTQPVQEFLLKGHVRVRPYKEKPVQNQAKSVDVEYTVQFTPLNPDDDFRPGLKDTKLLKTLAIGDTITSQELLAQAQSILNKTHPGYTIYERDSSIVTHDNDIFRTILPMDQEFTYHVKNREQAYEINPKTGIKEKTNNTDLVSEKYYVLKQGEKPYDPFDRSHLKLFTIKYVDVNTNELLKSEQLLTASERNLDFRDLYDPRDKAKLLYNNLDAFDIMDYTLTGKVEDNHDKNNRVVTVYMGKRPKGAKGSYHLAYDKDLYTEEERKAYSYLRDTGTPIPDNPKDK

[24] = target: X-box-binding protein 1 (Homo sapiens, UniProt P17861); format: functional, Cricetulus griseus;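 further: confirmatory dose-response counter-screen serving a CHOP assay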
[25] = test system: Streptococcus sp. 'group A'; assay: Streptococcus pyogenes SK(-)GAS viability under kanamycin – luminescence, BacTiterGlo, confirmation, counter-screen for streptokinase expression inhibitor project, dose response (AID 1900); format: functional, organism-based
[26] = test system: Streptococcus; assay: GAS UMAA2166 growth inhibition – luminescence, BacTiterGlo, counter-screen for streptokinase expression inhibitor project, dose response (AID 1915); format: functional, organism-based;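 further: potency for reduction of bacterial viability or growth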

Bcl-2-like protein 10, sequence (Q9HD36 whole entry): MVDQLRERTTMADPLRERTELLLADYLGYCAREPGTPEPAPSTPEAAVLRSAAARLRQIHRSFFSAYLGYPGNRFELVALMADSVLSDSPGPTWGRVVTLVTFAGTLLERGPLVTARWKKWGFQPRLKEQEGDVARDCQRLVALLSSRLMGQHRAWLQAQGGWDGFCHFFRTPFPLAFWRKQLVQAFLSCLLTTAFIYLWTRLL
Nonstructural protein 1, sequence (Q194T2 whole entry): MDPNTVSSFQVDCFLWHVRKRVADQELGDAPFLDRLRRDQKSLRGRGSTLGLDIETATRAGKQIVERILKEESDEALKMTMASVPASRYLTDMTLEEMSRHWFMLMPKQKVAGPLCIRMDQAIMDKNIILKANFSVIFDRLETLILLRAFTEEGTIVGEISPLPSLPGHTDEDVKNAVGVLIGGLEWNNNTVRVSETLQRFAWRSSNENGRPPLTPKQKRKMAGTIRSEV
Protein-tyrosine kinase 2-beta, sequence (Q14289 whole entry): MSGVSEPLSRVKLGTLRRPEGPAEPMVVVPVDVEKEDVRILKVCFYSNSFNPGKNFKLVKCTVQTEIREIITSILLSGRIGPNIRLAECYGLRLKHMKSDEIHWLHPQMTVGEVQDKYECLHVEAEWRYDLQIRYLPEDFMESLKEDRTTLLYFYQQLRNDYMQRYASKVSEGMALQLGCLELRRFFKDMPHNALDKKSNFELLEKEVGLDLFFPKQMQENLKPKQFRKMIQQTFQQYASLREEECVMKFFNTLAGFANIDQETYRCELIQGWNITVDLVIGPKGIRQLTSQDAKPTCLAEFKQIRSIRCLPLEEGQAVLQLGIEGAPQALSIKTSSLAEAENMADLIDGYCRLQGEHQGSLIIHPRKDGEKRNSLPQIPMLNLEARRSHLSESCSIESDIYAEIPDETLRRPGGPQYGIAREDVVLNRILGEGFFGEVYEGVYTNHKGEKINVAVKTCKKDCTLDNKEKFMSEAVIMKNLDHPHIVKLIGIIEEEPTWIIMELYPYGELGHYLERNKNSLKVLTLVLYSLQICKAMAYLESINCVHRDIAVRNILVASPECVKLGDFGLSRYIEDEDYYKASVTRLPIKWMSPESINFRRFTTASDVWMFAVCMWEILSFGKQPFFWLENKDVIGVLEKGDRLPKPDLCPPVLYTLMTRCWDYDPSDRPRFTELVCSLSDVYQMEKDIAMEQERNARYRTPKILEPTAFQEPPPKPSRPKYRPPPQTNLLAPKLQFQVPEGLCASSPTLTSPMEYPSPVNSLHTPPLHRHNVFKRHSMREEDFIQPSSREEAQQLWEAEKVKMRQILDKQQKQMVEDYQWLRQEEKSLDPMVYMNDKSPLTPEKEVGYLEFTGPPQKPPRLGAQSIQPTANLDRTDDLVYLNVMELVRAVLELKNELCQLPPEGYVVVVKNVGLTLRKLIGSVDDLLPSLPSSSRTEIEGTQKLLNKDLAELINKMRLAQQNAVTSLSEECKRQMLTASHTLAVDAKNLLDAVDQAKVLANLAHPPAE
X-box-binding protein 1, sequence (P17861 whole entry): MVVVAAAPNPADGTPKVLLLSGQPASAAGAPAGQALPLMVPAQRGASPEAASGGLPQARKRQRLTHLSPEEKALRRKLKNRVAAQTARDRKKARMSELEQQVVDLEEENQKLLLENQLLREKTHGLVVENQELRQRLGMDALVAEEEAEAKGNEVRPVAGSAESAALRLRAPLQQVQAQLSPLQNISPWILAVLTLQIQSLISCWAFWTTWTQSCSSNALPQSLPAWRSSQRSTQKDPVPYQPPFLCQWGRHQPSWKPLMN
NS3, sequence (A3EZJ3 whole entry): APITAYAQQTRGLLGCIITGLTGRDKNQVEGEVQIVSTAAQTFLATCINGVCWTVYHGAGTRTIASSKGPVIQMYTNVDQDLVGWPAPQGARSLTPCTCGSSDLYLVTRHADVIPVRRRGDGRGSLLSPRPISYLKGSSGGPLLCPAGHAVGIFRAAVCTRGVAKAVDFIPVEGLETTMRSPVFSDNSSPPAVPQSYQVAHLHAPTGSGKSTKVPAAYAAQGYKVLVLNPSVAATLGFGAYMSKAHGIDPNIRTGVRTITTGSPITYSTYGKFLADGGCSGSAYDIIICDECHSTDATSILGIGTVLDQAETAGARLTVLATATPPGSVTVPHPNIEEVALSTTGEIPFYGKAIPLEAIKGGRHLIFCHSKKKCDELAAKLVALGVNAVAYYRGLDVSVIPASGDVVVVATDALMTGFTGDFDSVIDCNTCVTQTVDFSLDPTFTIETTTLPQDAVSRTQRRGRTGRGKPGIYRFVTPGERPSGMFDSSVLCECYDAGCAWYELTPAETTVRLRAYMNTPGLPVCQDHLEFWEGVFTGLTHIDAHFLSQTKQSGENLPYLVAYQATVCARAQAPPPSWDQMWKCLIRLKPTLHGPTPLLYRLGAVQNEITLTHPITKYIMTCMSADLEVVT
Paired box protein Pax-8, sequence (Q06710 whole entry, the tested form may be a part): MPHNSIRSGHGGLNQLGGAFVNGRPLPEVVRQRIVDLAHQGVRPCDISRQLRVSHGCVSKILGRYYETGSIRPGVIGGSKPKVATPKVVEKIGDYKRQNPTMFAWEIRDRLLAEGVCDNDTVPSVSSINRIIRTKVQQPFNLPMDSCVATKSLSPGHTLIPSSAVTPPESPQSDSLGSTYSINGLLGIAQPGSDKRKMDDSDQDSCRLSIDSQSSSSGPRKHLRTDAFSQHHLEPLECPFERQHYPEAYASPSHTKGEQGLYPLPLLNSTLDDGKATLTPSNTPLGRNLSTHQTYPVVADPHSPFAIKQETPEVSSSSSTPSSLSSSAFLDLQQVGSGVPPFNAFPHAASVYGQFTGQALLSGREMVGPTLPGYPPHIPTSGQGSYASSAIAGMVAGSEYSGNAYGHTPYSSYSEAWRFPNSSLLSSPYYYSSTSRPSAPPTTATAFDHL
Eukaryotic translation initiation factor 4E, sequence (P63073 whole entry): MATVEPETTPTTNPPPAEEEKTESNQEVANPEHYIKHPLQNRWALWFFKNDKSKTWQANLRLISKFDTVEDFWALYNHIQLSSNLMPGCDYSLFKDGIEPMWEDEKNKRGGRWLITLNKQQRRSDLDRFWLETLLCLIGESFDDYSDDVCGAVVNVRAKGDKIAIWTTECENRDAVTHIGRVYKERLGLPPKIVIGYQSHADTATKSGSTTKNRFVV
Genome polyprotein, sequence (Q2Q167 whole entry): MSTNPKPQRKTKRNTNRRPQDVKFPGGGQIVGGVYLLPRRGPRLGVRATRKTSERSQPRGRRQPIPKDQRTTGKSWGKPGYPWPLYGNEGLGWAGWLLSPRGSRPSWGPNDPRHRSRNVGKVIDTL
Cyclin-dependent kinase 5/CDK5 activator 1, sequence (Q00535 whole entry): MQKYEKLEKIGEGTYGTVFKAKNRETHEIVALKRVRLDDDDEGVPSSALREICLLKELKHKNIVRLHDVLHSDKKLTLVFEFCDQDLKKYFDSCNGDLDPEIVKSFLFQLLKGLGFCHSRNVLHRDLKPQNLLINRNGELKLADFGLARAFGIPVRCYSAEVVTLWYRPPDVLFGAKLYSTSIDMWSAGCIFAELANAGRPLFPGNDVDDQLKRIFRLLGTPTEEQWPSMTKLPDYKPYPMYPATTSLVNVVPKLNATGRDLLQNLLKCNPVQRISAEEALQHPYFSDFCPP
Cyclin-dependent kinase 5/CDK5 activator 1, sequence (Q15078 whole entry, further chain): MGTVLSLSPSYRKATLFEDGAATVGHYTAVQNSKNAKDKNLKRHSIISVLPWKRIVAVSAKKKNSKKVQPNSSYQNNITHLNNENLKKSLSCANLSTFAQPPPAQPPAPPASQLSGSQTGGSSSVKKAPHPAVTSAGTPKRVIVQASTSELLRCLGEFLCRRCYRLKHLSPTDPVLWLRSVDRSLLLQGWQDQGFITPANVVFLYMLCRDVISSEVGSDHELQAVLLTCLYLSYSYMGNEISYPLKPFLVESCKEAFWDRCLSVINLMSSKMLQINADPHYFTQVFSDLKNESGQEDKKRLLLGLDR

For `O=C1c2c(O)ccc(O)c2C(=O)c2c(NCCNCCO)ccc(NCCNCCO)c21` [MITOXANTRONE], the IC50 [1] was 2050 nM (active), the IC50 [2] was > 122000 nM (inactive) and the AC50 [3] was < 244 nM (active). The AC50 [4] was 1250 nM (active), the CC50 [5] was < 380 nM (active) and the CC50 [6] was 6340 nM (active). For the same molecule, the AC50 [7] was 2340 nM (active) and the IC50 [8] was 14500 nM (active).
With `N#Cc1c(N)n(C2OC(CO)C(O)C2O)c2ncnc(N)c12` (configuration not stated) the AC50 [9] was 663 nM (active), the AC50 [10] was 8580 nM (active) and the AC50 [11] was < 260 nM (active). For the same molecule, the AC50 [4] was 120 nM (active), the AC50 [12] was 609 nM (active) and the AC50 [13] was 822 nM (active). The AC50 [14] was < 260 nM (active) and the AC50 [15] was 2860 nM (active).
In the case of `CC(=O)c1ccc(NC(=O)c2ccc3nc(-c4ccco4)c(-c4ccco4)nc3c2)cc1`, the IC50 [16] is reported as 1240 nM (active), the IC50 [17] is reported as > 49800 nM (not active) and the IC50 [18] is reported as > 64000 nM (inactive). The IC50 [19] was 83500 nM (not active), the IC50 [20] was 5880 nM (active) and the IC50 [21] was 998 nM (active) and 805 nM (active). The IC50 [22] was 14600 nM (active).
With `Cc1cc(O)c(NC(=S)NC(=O)c2ccc(-c3ccc(Cl)cc3)o2)cc1C` the EC50 [23] was > 150000 nM (not active), the “Absolute IC50 (XBP1)” value [24] was 10000 nM and the EC50 [25] was 959 nM (active). For the same molecule, the EC50 [26] was 12200 nM (active).
